According to the METLIN SMRT retention time set (Domingo-Almenara et al. 2019):

Assay: gradient 5% acetonitrile 3 min, to 50% in 2 min, to 85% in 15 min, held 3 min, 100 µL/min
Conditions: column: Zorbax Extend-C18 2.1 x 50 mm; eluents: water / acetonitrile, 0.1% formic acid
Method in brief: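 Pure standards were run in mixtures of ~100 molecules by HPLC coupled to a quadrupole time-of-flight mass spectrometer. The column was a Zorbax Extend-C18 (2.1 × 50 mm, 1.8 μm) at 100 μL/min, with water and acetonitrile each containing 0.1% formic acid, in positive and negative ionization mode. Dead and dwell volumes were 40 μL and 900 μL. Retention time was taken from computationally picked adduct peaks, each manually inspected, with data collected over 3 months.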

SMILES	RP-LC retention time
Cc1ccc(CN(Cc2cc(=O)n3cc(Cl)ccc3n2)CC(C)C)cc1	624 s
CCOC(=O)C(C)Oc1ccc2c(c1)O/C(=C\c1cc(Cl)cc3c1OCOC3)C2=O (stereo unspecified)	1160 s
CCCN1CCN(C(=O)CC2CCN(C(=O)c3[nH]c(C)c(C(=O)OC(C)C)c3C)CC2)CC1	624 s
Cn1c(=O)c(N2CCC(NC(=O)Nc3ccc(Cl)cc3)CC2)nc2ccccc21	904 s
Cc1ccsc1C(=O)Nc1ccc(OCc2nnc(-c3ccc(Cl)cc3)o2)cc1	1010 s
CC(=O)N1CCC2(CC1)NC(=O)c1ccccc1O2	633 s
COc1ccc2c(c1)[C@H]1OCCC[C@H]1C(c1ccc(C(=O)O)cc1)N2 (stereo partly specified)	820 s
COc1ccc2cccc(NC(=O)c3ccsc3)c2n1	1020 s
CC1=C(c2ccc(F)cc2)S(=O)(=O)N=C1N1CCCN(C(=O)CC2CCCC2)CC1	883 s
O=S(=O)(c1ccc(-c2noc(-c3cccc(F)c3)n2)cc1)N1CCOCC1	1090 s
Cc1noc(C2CN(CCCc3ccccc3)CC23CCCC3)n1 (stereo unspecified)	1020 s
Cc1ccc(NC(=O)Nc2nccn(-c3cccc(Cl)c3)c2=O)cc1C	1090 s
CC1CCN(CC2CCCN(C(=O)C3(c4ccccc4)CC3)CC2)CC1 (stereo unspecified)	660 s
O=S(=O)(NCc1ccccn1)c1ccc(F)c(Cl)c1	643 s
CCCNC(=O)c1nc2cc(C)c(C)cc2[nH]c1=O	671 s
O=C(Nc1ccc2c(c1)Cc1ccccc1-2)c1csc(Nc2ncccn2)n1	972 s
O=c1ccn(-c2ccccc2)nc1-c1nc(-c2ccc3c(c2)OCO3)no1	835 s
COc1cc(-c2noc(C3CC(=O)N(c4ccc(C)cc4C)C3)n2)cc(OC)c1OC (stereo unspecified)	938 s
O=C(C1CCN(S(=O)(=O)N2CCOCC2)CC1)N1CCN(Cc2noc3ccccc23)CC1	645 s
O=C(Nc1nc(-c2nc3ccccc3s2)cs1)c1coc2ccccc2c1=O	1160 s

SMILES	RP-LC retention time
CS(=O)(=O)N1CCC(CC(=O)NC2CCCCC2)C1 (stereo unspecified)	668 s
O=C(c1ccccc1)N1CCN(c2nc(CN3CCOCC3)cs2)CC1	852 s
CNC(=O)CSc1nnc(N2CCN(C(=O)Cc3ccc([N+](=O)[O-])cc3)CC2)s1	618 s
CCOC(=O)c1c(C)[nH]c(C(=O)N2CCC(CC(=O)NC(C)c3ccccc3)CC2)c1C (stereo unspecified)	780 s
Cc1cccc(NC(=O)Cn2c(C)nc3onc(C)c3c2=O)c1C	861 s
Nc1cc(C2CCN(S(=O)(=O)Cc3ccc(F)cc3)CC2)no1	747 s
Cc1noc(-c2ccc(-n3ncc(C(=O)NCCc4c[nH]c5ccccc45)c3C)nc2)n1	898 s
Cc1ccc(NC(=O)C2CCN(S(=O)(=O)c3c(C)[nH]c(C)c3C(=O)N3CCCC3)CC2)cc1F	753 s
COc1ccc(-c2nc3cc(C)ccn3c2NC(=O)c2ccc(Br)cc2)cc1	727 s
O=C(Cn1ccc2sccc2c1=O)NCc1ccccc1F	785 s
Cc1sc(-c2cc(C(F)(F)F)[nH]n2)cc1S(=O)(=O)NC1CCCC1	1000 s
NC(=O)C1CCN(C2CC(=O)N(c3cccc(F)c3)C2=O)CC1 (stereo unspecified)	582 s
CCOC(=O)c1cccc(NC(=O)CCc2c(-c3ccccc3)nc3ccccn23)c1	984 s
COc1ccccc1-c1nc(Cn2c(=O)c3c(C)cc(C)nc3n(C)c2=O)c(C)o1	1070 s
COc1ccc(C)cc1NS(=O)(=O)c1cc2c3c(c1)CCC(=O)N3CCC2	973 s
O=C1COc2ccccc2N1Cc1nc(-c2ccccc2Cl)no1	995 s
O=C1NC(C(=O)N2CCOCC2)Cn2cccc21 (stereo unspecified)	568 s
Cc1ccn2c(Nc3ccc4c(c3)OCCO4)c(-c3ccccc3O)nc2c1	670 s
Cc1cccc(CNS(=O)(=O)c2c(C)sc(C)c2-c2n[nH]c(C)c2C)c1	1070 s
CC(C)(C)n1nnnc1C1CC2(CCOCC2)C(=O)N1Cc1cccc(F)c1 (stereo unspecified)	784 s

SMILES	RP-LC retention time
O=C1NC2(CCN(C(=O)Nc3ccc(Br)cc3)CC2)N=C1c1cccc(F)c1	893 s
Cc1ccccc1Nc1c(-c2cccc(Br)c2)nc2cccc(C)n12	833 s
Cc1cc2nc(CSc3nnc(-c4ccc(Cl)cc4)o3)cc(=O)n2o1	786 s
Nc1nc(Cl)nc2c1ncn2[C@@H]1O[C@H](CO)[C@H](O)C1O (stereo partly specified)	611 s
CC(C)CN1Cc2ccccc2-n2ccnc2C12CCN(C(=O)c1ccc(F)cc1)CC2	739 s
Cc1ccc(NC(=O)c2sc(C)nc2C)c(Cl)c1	907 s
CC1=C(c2ccc(C(C)C)cc2)S(=O)(=O)N=C1N1CCC(C(=O)N2CCOCC2)CC1	779 s
O=C(Cc1ccc(Br)cc1)NC1CCN(c2cc(-c3ccc(F)cc3)[nH]n2)C1 (stereo unspecified)	780 s
CCc1ccc(C(=O)N2CCC3(C2)C(=O)Nc2ccc(OC)cc23)cc1 (stereo unspecified)	786 s
Cc1cccc(-c2nc(Cn3nnc(-c4nc(-c5ccncc5)no4)c3C)c(C)o2)c1	1070 s
O=c1[nH]cc(S(=O)(=O)NC2CCCC2)c(=O)[nH]1	600 s
Cc1ccc(NC(=O)C2CC(=O)N(c3n[nH]c4cccc(F)c34)C2)nc1 (stereo unspecified)	606 s
Cc1ccc(-c2noc(-c3ccc(NCCCN4CCOCC4)nc3)n2)cc1	695 s
CC1CCCCN1S(=O)(=O)c1ccc(Cl)c(C(F)(F)F)c1 (stereo unspecified)	1120 s
O=C1N(c2cccc(F)c2)c2ncccc2S(=O)(=O)N1Cc1ccccc1	1020 s
COC1CCC12CCN(Cc1ccc(C#N)cc1)CC2 (stereo unspecified)	597 s
CCn1cnc2ccc(-c3noc(Cc4ccc(F)cc4)n3)cc21	742 s
Cc1ccc(CN2C(=O)NC3(CCN(C(=O)c4cccs4)CC3)C2=O)cc1	820 s
COc1ccc(C2CC(=O)N(c3ccc(C)cc3)C(=O)C2)cc1OC	831 s

Next, values leading:

RP-LC retention time	SMILES
589 s	CCC1CCCCN1C(=O)c1cnc2nc(C)ccc2c1Nc1ccc(S(N)(=O)=O)cc1 (stereo unspecified)
615 s	Cc1ccc(Oc2cccc(C(=O)NCCNc3cc(-n4cccn4)ncn3)c2)nn1
1180 s	COc1cccc(CNc2ccc(-c3nc(-c4ccc(F)cc4)no3)cn2)c1
762 s	CCOCCCNC(=O)c1nnc(-c2ccc(S(=O)(=O)N3CCCCC3)cc2)o1
646 s	O=C(NCCCN1CCN(Cc2ccccc2)CC1)c1sc2ncccc2c1-n1cccc1
827 s	CCc1nc(OCC(=O)Nc2ccccc2Br)c2ccccc2n1
883 s	COc1cccc(NC(=O)C2CCN(S(=O)(=O)c3cc(-c4noc(C)n4)cs3)CC2)c1
619 s	Cc1ccc(NC(=O)c2ccc3c(c2)N(CC(=O)N2CCCC2)C(=O)CO3)nc1
602 s	CCOc1cccc(CNC(=O)c2cn3c(n2)CCCC3)c1
996 s	CCCCOc1ccc(S(=O)(=O)N2CCN(c3cc(C)nc(NC4CCCCC4)n3)CC2)cc1
653 s	CCCn1c(C2CCN(C(=O)Nc3ccc(C)cc3)CC2)cc(=O)n2nccc12
544 s	CNC(=O)Nc1cccnc1N1CCCCC1
894 s	O=C(Cn1c(=O)c(S(=O)(=O)c2ccccc2)cc2ccccc21)NC1CCCCC1
867 s	Cn1ncc(Br)c1C(=O)N1CCCC1c1cccc(F)c1 (stereo unspecified)
591 s	CC(C)N1CCN(c2ncc(C(=O)Nc3ccccc3)c(N)n2)CC1
863 s	CCCc1nnsc1C(=O)NCC1CCN(C(=O)Oc2ccccc2)CC1

RP-LC retention time	SMILES
621 s	CC1CCCCN1CCNC(=O)CCCn1c(=O)c2cccn2c2ccccc21 (stereo unspecified)
636 s	CS(=O)(=O)c1ccc(Nc2nc(C(=O)NCC3CCCO3)cs2)cc1 (stereo unspecified)
666 s	CCN(C(=O)CN1C(=O)NC2(CCC(C)CC2)C1=O)c1cccc(C)c1 (stereo unspecified)
754 s	COc1cccc(CNC(=O)C2CCCN(c3nnc4ccc(Cl)cn34)C2)c1OC (stereo unspecified)
1120 s	O=C(c1ccc(F)c(F)c1)N1CCCC(c2ccnc(-c3cccc(F)c3)n2)C1 (stereo unspecified)
604 s	COc1ccc(CNC(=O)c2cn3ccc(C)cc3n2)cc1OC
619 s	Cc1nc2n(c(=O)c1C)CCN2CC(=O)NCc1cccs1
873 s	COc1cccc(CNC(=O)NCCC2CCN(S(=O)(=O)c3ccc(C)cc3)CC2)c1
1050 s	COc1ccc(OC)c(NC(=O)C2CCCN(S(=O)(=O)Cc3ccc(Cl)cc3)C2)c1 (stereo unspecified)
618 s	COc1ccccc1-c1nc2cnccn2c1NCCC(=O)NC1CCCC1
568 s	CN1CCC(NC(=O)c2n[nH]c3c2CN(C(=O)c2ccccc2)CC3)CC1
622 s	CC(Oc1cccc(Cl)c1)C(=O)N1CCn2cnnc2C1 (stereo unspecified)
917 s	Cn1cc(S(=O)(=O)N2CCCCC2)cc1C(=O)Nc1ccc2c(c1)OCCO2
1150 s	COc1ccccc1-c1nc2sc3c(c2c(=O)[nH]1)CCCC3
729 s	COc1ccc(-c2cn3c(CC(=O)NC4CCCCCC4)csc3n2)cc1OC
560 s	O=C(NCCc1ccncc1)c1cnn(-c2ccccc2)n1
